Experimental data as given in publication PMC10812672, “Short Antimicrobial Peptide Derived from the Venom Gland Transcriptome of Pamphobeteus verdolaga Increases Gentamicin Susceptibility of Multidrug-Resistant Klebsiella pneumoniae” (Antibiotics, 2023).
Ends that are not written are not given here.

Experiments:
[1] = tested on: multidrug-resistant (MDR) strain of K. pneumoniae, clinical isolate; assay: microbe, parasite or virus in culture; type: cell-based, Klebsiella pneumoniae; conditions: for IC50 / MIC / inhibition at 100 µM: Klebsiella pneumoniae; for MIC / Classification at 10^6 CFU/mL: MDR K. pneumoniae clinical isolate; for Classification at 10^6 CFU/mL: CLSI classification; for inhibition at 100 µM: read-out: maximum growth inhibition
Procedure: A multidrug-resistant (MDR) strain of K. pneumoniae was identified and isolated from a tertiary-level hospital in Medellin, Colombia, using the VITEK-2 system (bioMérieux, Marcy-l’Étoile, France). The MDR strain was evaluated against several antibiotics at concentrations of 1.56–100 μM. […] In contrast, the strain was susceptible to doxycycline (Supplementary Figure S7g) and chloramphenicol (Supplementary Figure S7h), with MICs of 50 μM and 100 µM, respectively (Table 3). […] All of P. verdolaga’s AMPs were evaluated against the clinical isolate at concentrations of 1.56–200 µM (Supplementary Figure S8). […] A growth inhibition kinetic assay was conducted. […] All of P. verdolaga’s peptides at 100 μM induced morphological changes in the MDR K. pneumoniae, indicating membrane interactions, even though no significant inhibition was observed (Supplementary Figure S9).
The evaluation of the antimicrobial activity of the peptides was conducted using the CLSI’s broth microdilution method for bacterial susceptibility testing. For the screening phase, peptides were evaluated at a single 30 μM concentration, in triplicate and in three independent assays, against the E. coli ATCC® 8739, E. coli ATCC® 25922, S. aureus ATCC® 6538, or S. aureus ATCC® 29213 reference USP and CLSI strains. For the determination of MIC, MBC, or IC50, peptides or antibiotics were evaluated in concentrations between 1.56–200 µM. These evaluations were conducted in triplicate and in three independent assays, against the E. coli ATCC® 25922, S. aureus ATCC® 29213, E. faecalis ATCC® 49532, P. aeruginosa ATCC® 9027, and K. pneumoniae ATCC® BAA-1705, or the clinically isolated MDR strain. In detail, 1 mL of a glycerol stock solution of the ATCC® or clinically isolated bacterial strain was added to 9 mL of Mueller-Hinton Broth and incubated for 18 h, 180 rpm and 37 °C (Incubator 1000, Heidolph Instruments, Schwabach, Germany). After the incubation, 1 mL of the previous solution was transferred to a new recipient containing 9 mL of fresh Mueller-Hinton broth and incubated for 4 h, 180 rpm and 37 °C (Incubator 1000, Heidolph Instruments, Schwabach, Germany). During the second incubation, the peptides or the antibiotics were dissolved in PBS pH 7.20 in concentrations between 19.53–2500 µM (MC5 Micro Balance, Sartorius AG, Göttingen, Germany). An amount of 10 µL of either peptide or antibiotic was dispensed in triplicate in 96-well flat bottom culture plates, along with 10 µL of PBS (Negative activity control), BTM-P1 (Positive activity control), or 10 µL of Mueller-Hinton broth (Blank); then, 110 µL of Mueller-Hinton broth was poured in all wells. Following this, the bacteria were suspended in Mueller-Hinton broth up to a concentration of approximately 1.50 × 10^8 CFU/mL, as measured by optical density at 600 nm between 0.06 to 0.11 (0.5 McFarland standard), in a Multiskan SkyHigh spectrophotometer (ThermoFisher Scientific, Waltham, MA, USA). Amounts of 5 µL of the 1.50 × 10^8 CFU/mL suspension were added to each well (except for the blank) for a final well concentration of approximately 6 × 10^6 CFU/mL. The plate was incubated for 24 h at 37 °C (BE 500, Memmert GmbH, Büchenbach, Germany) and optical density was measured at 600 nm in a Multiskan SkyHigh spectrophotometer (ThermoFisher Scientific, Waltham, MI, USA). Following the measurement of optical density, plates were visually inspected to determine the MIC. Subsequently, 100 µL of the concentration associated to the MIC and 100 µL of the next higher concentration were added to Petri dishes containing Mueller-Hinton Agar. The dishes were then incubated for 24 h at 37 °C (BE 500, Memmert GmbH, Büchenbach, Germany). After incubation, the Petri dishes were visually inspected, and the MBC was determined in the absence of growth. IC50 values were interpolated from regressions with correlation values above 0.70. […]

E. coli ATCC® 8739 = type: cell-based, Escherichia coli; conditions: CLSI broth microdilution, Mueller-Hinton broth, peptide 30 µM, ~6 × 10^6 CFU/mL, 24 h 37 °C, OD600; triplicate, three independent assays; NA = no activity
Procedure: (§1) Activity screening was conducted using the broth microdilution method at a fixed peptide concentration of 30 µM against E. coli ATCC® 8739 and 25922, as well as S. aureus ATCC® 6538 and 29213. The bacterial density used for screening was approximately 6 × 10^6 CFU/mL [30]. Peptide activity measurements were conducted in terms of the growth inhibition percentage. No dose-response curves were generated during the screening phase as a resource optimization strategy in the initial activity evaluation. […] For S. aureus ATCC® 6538 and S. aureus ATCC® 29213, growth inhibition ranged from 0% to 140% and 0% to 98%, respectively (Table 1).
(§2) The evaluation of the antimicrobial activity of the peptides was conducted using the CLSI’s broth microdilution method for bacterial susceptibility testing. For the screening phase, peptides were evaluated at a single 30 μM concentration, in triplicate and in three independent assays, against the E. coli ATCC® 8739, E. coli ATCC® 25922, S. aureus ATCC® 6538, or S. aureus ATCC® 29213 reference USP and CLSI strains. For the determination of MIC, MBC, or IC50, peptides or antibiotics were evaluated in concentrations between 1.56–200 µM. These evaluations were conducted in triplicate and in three independent assays, against the E. coli ATCC® 25922, S. aureus ATCC® 29213, E. faecalis ATCC® 49532, P. aeruginosa ATCC® 9027, and K. pneumoniae ATCC® BAA-1705, or the clinically isolated MDR strain. In detail, 1 mL of a glycerol stock solution of the ATCC® or clinically isolated bacterial strain was added to 9 mL of Mueller-Hinton Broth and incubated for 18 h, 180 rpm and 37 °C (Incubator 1000, Heidolph Instruments, Schwabach, Germany). After the incubation, 1 mL of the previous solution was transferred to a new recipient containing 9 mL of fresh Mueller-Hinton broth and incubated for 4 h, 180 rpm and 37 °C (Incubator 1000, Heidolph Instruments, Schwabach, Germany). During the second incubation, the peptides or the antibiotics were dissolved in PBS pH 7.20 in concentrations between 19.53–2500 µM (MC5 Micro Balance, Sartorius AG, Göttingen, Germany). An amount of 10 µL of either peptide or antibiotic was dispensed in triplicate in 96-well flat bottom culture plates, along with 10 µL of PBS (Negative activity control), BTM-P1 (Positive activity control), or 10 µL of Mueller-Hinton broth (Blank); then, 110 µL of Mueller-Hinton broth was poured in all wells. Following this, the bacteria were suspended in Mueller-Hinton broth up to a concentration of approximately 1.50 × 10^8 CFU/mL, as measured by optical density at 600 nm between 0.06 to 0.11 (0.5 McFarland standard), in a Multiskan SkyHigh spectrophotometer (ThermoFisher Scientific, Waltham, MA, USA). Amounts of 5 µL of the 1.50 × 10^8 CFU/mL suspension were added to each well (except for the blank) for a final well concentration of approximately 6 × 10^6 CFU/mL. The plate was incubated for 24 h at 37 °C (BE 500, Memmert GmbH, Büchenbach, Germany) and optical density was measured at 600 nm in a Multiskan SkyHigh spectrophotometer (ThermoFisher Scientific, Waltham, MI, USA). Following the measurement of optical density, plates were visually inspected to determine the MIC. Subsequently, 100 µL of the concentration associated to the MIC and 100 µL of the next higher concentration were added to Petri dishes containing Mueller-Hinton Agar. The dishes were then incubated for 24 h at 37 °C (BE 500, Memmert GmbH, Büchenbach, Germany). After incubation, the Petri dishes were visually inspected, and the MBC was determined in the absence of growth. IC50 values were interpolated from regressions with correlation values above 0.70. Growth inhibition percentages were calculated as follows: Growth inhibition %=1−AbsPEPTIDE or ANTIBIOTIC−Median AbsBLANK/Median AbsPBS−Median AbsBLANK×100

E. coli ATCC® 25922 [2] = type: cell-based, Escherichia coli; conditions: CLSI broth microdilution, Mueller-Hinton broth, peptide 30 µM, ~6 × 10^6 CFU/mL, 24 h 37 °C, OD600; triplicate, three independent assays; NA = no activity
Procedure: as §1, §2

S. aureus ATCC® 29213 = type: cell-based, Staphylococcus aureus; conditions: CLSI broth microdilution, Mueller-Hinton broth, peptide 30 µM, ~6 × 10^6 CFU/mL, 24 h 37 °C, OD600; triplicate, three independent assays; NA = no activity
Procedure: as §1, §2

S. aureus ATCC® 6538 = type: cell-based, Staphylococcus aureus; conditions: CLSI broth microdilution, Mueller-Hinton broth, peptide 30 µM, ~6 × 10^6 CFU/mL, 24 h 37 °C, OD600; triplicate, three independent assays; NA = no activity
Procedure: as §1, §2

E. coli ATCC® 25922 [3] = type: cell-based, Escherichia coli; conditions: 24 h 37 °C; for MIC: 1.56–200 µM, visual inspection, triplicate, three independent assays
Procedure: The nine AMPs identified in the initial screening were evaluated at concentrations between 1.56–200 µM, against E. coli ATCC® 25922, S. aureus ATCC® 29213, E. faecalis ATCC® 49532, P. aeruginosa ATCC® 9027, and K. pneumoniae ATCC® BAA-1705 (Supplementary Figures S2–S6). […] Only PvAMP66 and PvAMP172 reached the MBC for S. aureus at 50 µM and 100 µM, respectively (Table 2).
as §2

[4] = 24 h, peptides 1.56–200 µM, antibiotics 1.56–100 µM, 24 h 37 °C

O=C(N[C@H](CO)[C@H](O)c1ccc([N+](=O)[O-])cc1)C(Cl)Cl [Chloramphenicol, chloramphenicol]
IC50 [1]: 56.2 µM
MIC [1, 4]: 100 µM
MIC [1]: 4.04 µg/mL
Classification at 10^6 CFU/mL [1]: Susceptible

C[C@H]1c2cccc(O)c2C(=O)C2=C(O)[C@]3(O)C(=O)C(C(N)=O)=C(O)[C@@H](N(C)C)[C@@H]3[C@@H](O)[C@@H]21 [Doxycycline, doxycycline]
IC50 [1]: 38.1 µM
MIC [1, 4]: 50 µM
MIC [1]: 3.21 µg/mL
Classification at 10^6 CFU/mL [1]: Susceptible

CC1(C)S[C@@H]2[C@H](NC(=O)[C@H](N)c3ccccc3)C(=O)N2[C@H]1C(=O)O [ampicillin]
inhibition at 100 µM [1]: ≤ 20%

Cc1onc(-c2c(Cl)cccc2Cl)c1C(=O)N[C@@H]1C(=O)N2[C@@H]1SC(C)(C)[C@@H]2C(=O)O [dicloxacillin]
inhibition at 100 µM [1]: ≤ 20%

CN(C)[C@@H]1C(O)=C(C(N)=O)C(=O)[C@@]2(O)C(O)=C3C(=O)c4c(O)cccc4[C@@](C)(O)[C@H]3[C@H](O)[C@@H]12 [oxytetracycline]
inhibition at 100 µM [1]: ≤ 20%

[H]/N=C(/N)N[C@H]1[C@H](O)[C@@H](O)[C@H](O[C@@H]2O[C@@H](C)[C@](O)(C=O)[C@H]2O[C@@H]2O[C@@H](CO)[C@H](O)[C@@H](O)[C@@H]2NC)[C@@H](N/C(N)=N\[H])[C@@H]1O [streptomycin]
inhibition at 100 µM [1]: ≤ 20%

CRRVCYKNR CVTYCRG (disulfide) [PvAMP169, predicted P. verdolaga AMP]
inhibition (E. coli ATCC® 8739): 13.6 ± 5.92%
E. coli ATCC® 25922 (Inhibition %) (E. coli ATCC® 25922 [2]): 55.69 ± 4.65 %

FLGKNLG-NH2 [PvAMP15]
inhibition (S. aureus ATCC® 29213): 27.5 ± 29.7%
S. aureus ATCC® 6538 (Inhibition %) (S. aureus ATCC® 6538): 43.62 ± 10.56 %

FSGNKLLPG-NH2 [PvAMP81]
inhibition (E. coli ATCC® 8739): 8.57 ± 4.46%
E. coli ATCC® 25922 (Inhibition %) (E. coli ATCC® 25922 [2]): 31.88 ± 2.18 %

ILKPFMLRR-NH2 [PvAMP84]
E. coli ATCC® 8739 (Inhibition %) (E. coli ATCC® 8739): 24.29 ± 6.74 %
inhibition (E. coli ATCC® 25922 [2]): 11.3 ± 3.72%

LLSKIFG-NH2 [PvAMP16]
inhibition (S. aureus ATCC® 29213): 13.8 ± 6.48%
S. aureus ATCC® 6538 (Inhibition %) (S. aureus ATCC® 6538): 42.06 ± 4.29 %

LLTGIKS-NH2 [PvAMP30]
inhibition (S. aureus ATCC® 29213): 7.34 ± 10.3%
S. aureus ATCC® 6538 (Inhibition %) (S. aureus ATCC® 6538): 35.52 ± 7.29 %

SLFKFLA-NH2 [PvAMP8]
inhibition (S. aureus ATCC® 29213): 11.9 ± 8.93%
S. aureus ATCC® 6538 (Inhibition %) (S. aureus ATCC® 6538): 47.95 ± 3.62 %

SLWGMWR-NH2 [PvAMP7]
E. coli ATCC® 8739 (Inhibition %) (E. coli ATCC® 8739): 26.74 ± 0.68 %
E. coli ATCC® 25922 (Inhibition %) (E. coli ATCC® 25922 [2]): 18.21 ± 2.54 %
S. aureus ATCC® 29213 (Inhibition %) (S. aureus ATCC® 29213): 23.66 ± 3.34 %
S. aureus ATCC® 6538 (Inhibition %) (S. aureus ATCC® 6538): 37.89 ± 1.50 %
MIC (E. coli ATCC® 25922 [3]): 200 µM

YRARCVIYC-NH2 (disulfide) [PvAMP69, predicted P. verdolaga AMP]
inhibition (E. coli ATCC® 8739): 1.75 ± 9.78%
E. coli ATCC® 25922 (Inhibition %) (E. coli ATCC® 25922 [2]): 19.08 ± 0.12 %
S. aureus ATCC® 29213 (Inhibition %) (S. aureus ATCC® 29213): 29.81 ± 3.31 %
S. aureus ATCC® 6538 (Inhibition %) (S. aureus ATCC® 6538): 32.32 ± 7.00 %
MIC (E. coli ATCC® 25922 [3]): 200 µM
MBC (E. coli ATCC® 25922 [3]; plating on Mueller-Hinton agar, absence of growth): 200 µM

penicillin
maximum growth inhibition ([1]; MDR K. pneumoniae, at 100 μM, complete resistance): ≤ 20%
